Measurements published in publication PMC12142043, “Cell-based high-content approach for SARS-CoV-2 neutralization identifies unique monoclonal antibodies and PI3K pathway inhibitors” (Frontiers in Cell and Developmental Biology, 2025).
Counter-ions that a name gives are not always drawn. Like-named read-outs stand apart in the source and are kept apart here.

Experiments:
[1] = system: SARS-CoV-2 (USA-WA1/2020) in Calu-3 cells; test: microbe, parasite or virus in culture; format: cell-based; settings: for EC50: read-out: EC50 (μM) dsRNA
Calu-3 cells [2] = test: cells; settings: Homo sapiens, Calu-3, read-out: EC50 (μM) Cell count
[3] = system: SARS-CoV-2 (USA-WA1/2020) in Calu-3 cells; format: cell-based; settings: Calu-3, 48 h; for dsRNA signal, AU High: high dose (10 µM); for dsRNA signal, AU Low: low dose (100 nM)
[4] = system: Calu-3 cells infected with SARS-CoV-2; format: cell-based, human; design: key to Grouping with red cluster (mock control) in UMAP: *: Clusters with mock control in high-dose treatment; settings: high-dose treatment
Calu-3 cells [5] = settings: for EC50: read-out: EC50 (μM) Cell count, Calu-3, DAPI-stained nuclei, above 30 μM reported as >30
[6] = […], above 30 μM reported as >30
[7] = Severe acute respiratory syndrome coronavirus 2, Calu-3, 48 h, […], above 30 μM reported as >30
[8] = fold: cell count EC50 over dsRNA EC50
[9] = listed as Flavopiridol hydrochloride

Row | Molecule | EC50 (Calu-3 cells [2]) [µM] | dsRNA signal, AU High [3] [AU] | dsRNA signal, AU Low [3] [AU] | EC50 [1, 7] [µM] | Selectivity index [1, 8] | also measured
1 | COCCOc1cnc2ccn([C@H](C)c3nnc4c(F)cc(-c5cnn(C)c5)cn34)c(=O)c2c1 [AMG 337, reference compound] | > 30 | 6788.1 | 33845.4 |  |  | EC50 (μM) dsRNA [1, 6]: None
2 | O=C(NC1CCNCC1)c1[nH]ncc1NC(=O)c1c(Cl)cccc1Cl [AT7519] | 0.646 | 23488.0 | 46607.1 | 1.23 | 0.525 | 
3 | COc1cc([C@@H]2c3cc4c(cc3[C@H](O)[C@H]3COC(=O)[C@@H]23)OCO4)cc(OC)c1OC [AXL1717] | 0.82 | 13380.1 | 31807.4 | 0.00332 | 246.615 | Grouping with red cluster (mock control) in UMAP [4]: AXL1717*
4 | CC[C@H](Nc1ncnc2[nH]cnc12)c1nc2cccc(F)c2c(=O)n1-c1ccccc1 [CAL-101] | > 30 | 57616.6 | 3708.3 | 0.0521 | >575 | 
5 | N#CCNC(=O)c1ccc(-c2ccnc(Nc3ccc(N4CCOCC4)cc3)n2)cc1 [CYT387] | 2.41 | 36485.3 | 15837.3 | 0.0276 | 87.486 | 
6 | O=S(=O)(c1cccc2cnccc12)N1CCCNCC1 [Fasudil] | 1.22 |  |  | 0.0124 | 98.072 | 
7 | CN1CC[C@H](c2c(O)cc(O)c3c(=O)cc(-c4ccccc4Cl)oc23)[C@H](O)C1 [Flavopiridol HCl] | 0.364 |  |  | 11.4 | 0.032 | Grouping with red cluster (mock control) in UMAP [4]: Flavopiridol HCl*; dsRNA signal, AU High [3, 9]: 187.1 AU; dsRNA signal, AU Low [3, 9]: 16139.6 AU
8 | CC(C)NC[C@@H](C(=O)N1CCN(c2ncnc3c2[C@H](C)C[C@H]3O)CC1)c1ccc(Cl)cc1 [GDC-0068, reference compound] | > 30 | 10110.1 | 18551.4 | > 30 |  | 
9 | CC1(C)OCCn2c1nc1c(N3CCOCC3)nc(-c3cnc(N)nc3)nc12 [GDC-0084] | 1.31 |  |  | 1.5 | 0.873 | Grouping with red cluster (mock control) in UMAP [4]: GDC-0084*
10 | O=c1c(-c2ccc(O)cc2)coc2cc(O)cc(O)c12 [Genistein, reference compound] | > 30 | 5526.1 | 19461.3 |  |  | EC50 (μM) dsRNA [1, 6]: None
11 | C=CC(=O)N1CCC[C@@H](n2nc(-c3ccc(Oc4ccccc4)cc3)c3c(N)ncnc32)C1 [Ibrutinib] | > 30 | 3646.9 | 17695.2 | 13.7 |  | Effect on dsRNA / virus in dose response ([1]; Figure 5C-F): did block the virus in high concentrations; Effect on host cell viability and morphology (Calu-3 cells [5]; Figure 5C-F): significant cell toxicity
12 | O=C1Nc2ccccc2/C1=C1/Nc2ccccc2C1=O [Indirubin] | > 30 |  |  |  |  | Selectivity index [1]: >26; EC50 ([1]; Severe acute respiratory syndrome coronavirus 2, Calu-3, 48 h): 1.14 µM
13 | Cl.Cl.O=C(Cc1ccc(-c2ccc(OCCN3CCOCC3)cc2)cn1)NCc1ccccc1 [KX2-391 dihydrochloride] |  | 1685.1 | 2878.5 |  | 0.016 | EC50 [1, 6]: 8.72 µM; EC50 (Calu-3 cells [5]): 0.136 µM
14 | Cc1ccc(F)c(NC(=O)Nc2ccc(-c3cccc4[nH]nc(N)c34)cc2)c1 [Linifanib] | > 30 | 6252.9 | 21480.2 | 20.5 | >1.4 | 
15 | O=C(Nc1ncc(SCCN2CCCC2)s1)[C@]1(c2ccc(S(=O)(=O)C3CC3)cc2)C[C@H]1C1CCCCC1 [Ly2608204] |  |  |  |  | <0.69 | EC50 [1, 6]: > 30 µM; EC50 (Calu-3 cells [5]): 20.9 µM; Grouping with red cluster (mock control) in UMAP [4]: Ly2608204*
16 | C[C@@H](NC(=O)c1ncnc(N)c1Cl)c1ncc(C(=O)Nc2cc(C(F)(F)F)c(Cl)cn2)s1 [MLN 2480] | > 30 |  |  | 0.0998 | >300 | 

Row | Molecule | EC50 (Calu-3 cells [2]) [µM] | dsRNA signal, AU High [3] [AU] | dsRNA signal, AU Low [3] [AU] | EC50 [1, 7] [µM] | Selectivity index [1, 8] | also measured
17 | CN1CCN(c2ccc(OC(F)(F)F)c(Nc3ncc4c(n3)-c3c(c(C(N)=O)nn3CCO)CC4)c2)CC1 [NMS-1286937] | 0.0916 | 5848.8 | 38547.7 | 17.8 | 0.005 | 
18 | CCOc1cc2ncc(C#N)c(Nc3ccc(F)c(Cl)c3)c2cc1NC(=O)/C=C/CN(C)C [Pelitinib] | 5.88 |  |  |  |  | EC50 (μM) dsRNA [1, 6]: None; Grouping with red cluster (mock control) in UMAP [4]: Pelitinib*
19 | Cc1ncc(CO)c(CO)c1O [Pyridoxine] | > 30 | 17847.0 | 29400.2 | > 30 |  | Grouping with red cluster (mock control) in UMAP [4]: Pyridoxine*
20 | COc1cc(Nc2ncc(F)c(Nc3ccc4c(n3)NC(=O)C(C)(C)O4)n2)cc(OC)c1OC [R406, reference compound] |  | 5357.1 | 30563.4 |  |  | EC50 (μM) dsRNA [1, 6]: None; EC50 (Calu-3 cells [5]): 1.84 µM
21 | CNC(=O)c1cc(Oc2ccc(NC(=O)Nc3ccc(Cl)c(C(F)(F)F)c3)c(F)c2)ccn1 [Regorafenib monohydrate] | > 30 | 7085.4 | 14285.8 | 6.46 | >4 | 
22 | Cn1c(=O)c(F)c(Nc2ccc(I)cc2F)c2c(=O)n(C[C@@H](O)CO)cnc21 [TAK-733, reference compound] | > 30 | 15107.2 | 14755.9 | > 30 |  | 
23 | Cc1cnc(Nc2ccc(OCCN3CCCC3)cc2)nc1Nc1cccc(S(=O)(=O)NC(C)(C)C)c1 [TG101348] | 1.61 | 3065.1 | 15118.2 |  |  | EC50 (μM) dsRNA [1, 6]: None; Grouping with red cluster (mock control) in UMAP [4]: TG101348*
24 | O=C1NC(=O)[C@@H](c2cn3c4c(cccc24)CCC3)[C@@H]1c1c[nH]c2ccccc12 [Tivantinib] | 2.21 | 46631.5 | 19485.6 | > 30 | <.07 | 
25 | CC(=O)Nc1cccc(-n2c(=O)n(C3CC3)c(=O)c3c(Nc4ccc(I)cc4F)n(C)c(=O)c(C)c32)c1 [Trametinib] | > 30 | 36456.5 | 10541.3 | 0.398 | >75 | 
26 | CCOC(=O)C1=C[C@]2(CC)CCCN3CCc4c(n1c1ccccc41)[C@@H]32 [Vinpocetine] | > 30 | 5212.2 | 19993.1 | 25.7 | >1 | 
27 | CC(C)c1cc(CNc2nc(Nc3cc(C4CC4)[nH]n3)cc(N3CCN(C)CC3)n2)on1 [XL228] | 0.0664 | 17836.6 | 39819.2 | 0.0745 | 0.891 | Grouping with red cluster (mock control) in UMAP [4]: XL228*
28 | TA 01 |  | 672.4 | 13985.5 |  |  | 
29 | Telatinib (BAY 57-9352) |  | 46565.4 | 19646.6 |  |  | 
30 | VX-11e |  | 6059.4 | 11825.4 |  |  | 
31 | kb NB 142-70 |  | 958.0 | 2847.9 |  |  | 
